Values of other authors in patent US12440441B2 (LIQMEDS WORLDWIDE LIMITED, priority 2021, dated 2025).

Legend:
calcium channel = conditions: Stopher

solubility in ethanol (ethanol) | solubility in water (water) | Compound | calcium antagonist activity relative to amlodipine (calcium channel)
sparingly soluble | slightly soluble | CCOC(=O)C1=C(COCCN)NC(C)=C(C(=O)OC)C1c1ccccc1Cl (stereo not drawn) [Amlodipine besylate, amlodipine besylate] | 
 |  | CCOC(=O)c1c(COCCN)nc(C)c(C(=O)OC)c1-c1ccccc1Cl [Impurity A, Amlodipine Related Substance A] | does not show any significant calcium antagonist activity
